Assay results as given in patent US7834024B2, “Compositions and methods for inhibition of the JAK pathway” (Rigel Pharmaceuticals, Inc., priority 2007, dated 2010).

The compounds below were run on Ramos B-Cell Line Stimulated with IL-4 (JAK-1 and JAK-3 / Stat-6, CD23) (assay: Assay for Ramos B-Cell Line Stimulated with IL-4 (CD23 upregulation, FACS)). Settings: Homo sapiens, Ramos, human Ramos B cells, compound 1 hour, IL-4 50 units/mL for 20-24 hours, anti-CD23-PE FACS; read-out: Example 2 (IC50).
Assay type: cell-based
Excerpt: One means of assaying for such inhibition is detection of the effect of the 2,4-pyrimidinediamine compounds on the upregulation of downstream gene products. In the Ramos/IL4 assay, B-cells are stimulated with the cytokine Interleukin-4 (IL-4) leading to the activation of the JAK/Stat pathway through phosphorylation of the JAK family kinases, JAK1 and JAK3, which in turn phosphorylate and activate the transcription factor Stat-6. […] To study the effect of inhibitors (e.g., the 2,4-substituted pyrimindinediamine compounds described herein) on the JAK1 and JAK3 kinases, human Ramos B cells are stimulated with human IL-4. 20 to 24 hours post stimulation, cells are stained for upregulation of CD23 and analyzed using flow cytometry (FACS).
B-cells stimulated with cytokine Interleukin-4 (IL-4) activate the JAK/Stat pathway through phosphorylation of the JAK family kinases, JAK-1 and JAK-3, which in turn phosphorylate and activate the transcription factor Stat-6. […] To study the effect of inhibitors on the JAK family kinases, human Ramos B cells were stimulated with human IL-4.
Cells were maintained at a density of 3.5×10^5. The day before the experiment, Ramos B-cells were diluted to 3.5×10^5 cells/mL to ensure that they were in a logarithmic growth phase.
Cells were spun down and suspended in RPMI with 5% serum. 5×10^4 cells were used per point in a 96-well tissue culture plate. Cells were pre-incubated with compound or DMSO (Sigma-Aldrich, St. Louis, Mo., Cat No. D2650) vehicle control for 1 hour in a 37° C. incubator. Cells were then stimulated with IL-4 (Peprotech Inc., Rocky Hill, N.J., Cat No. 200-04) for a final concentration of 50 units/mL for 20-24 hours. […] Detection was performed using a BD LSR I System Flow Cytometer, purchased from Becton Dickinson Biosciences of San Jose, Calif.

Compound | IC50 [nM]
CCc1cc(Nc2ncc(F)c(Nc3ccc(OCC#N)c(Cl)c3)n2)cc(C#N)c1Cl [Compound I-108, N2-(4-Chloro-3-cyano-5-ethylphenyl)-N4-(3-chloro-4-cyanomethoxyphenyl)-5-fluoro-2,4-pyrimidinediamine] | 1800
NC(=O)COc1cccc(Nc2nc(Nc3cccc(C(N)=O)c3)ncc2F)c1 [Compound I-33, N4-(3-Aminocarbonylmethoxyphenyl)-N2-(3-aminocarbonylphenyl)-5-fluoro-2,4-pyrimidinediamine] | 3050
Cc1noc(CCc2ccc(Nc3nc(Nc4ccc(CC#N)cc4)ncc3F)cc2)n1 [Compound I-120, N2-(4-Cyanomethylphenyl)-5-fluoro-N4-[4-(2-(3-methyl-1,2,4-oxadiazol-5-yl)ethyl)phenyl]-2,4-pyrimidinediamine] | 1950
Cc1nc(COc2ccc(Nc3nc(Nc4ccc(C#N)cc4)ncc3F)cc2)no1 [Compound I-58, N2-(4-Cyanophenyl)-5-fluoro-N4-[4-((5-methyl-1,2,4-oxadiazol-3-yl)methoxy)phenyl]-2,4-pyrimidinediamine] | 967
N#CCc1ccc(Nc2nc(Nc3cccc(C(N)=O)c3)ncc2F)cc1 [Compound I-68, N2-(3-Aminocarbonylphenyl)-N4-(4-cyanomethylphenyl)-5-fluoro-2,4-pyrimidinediamine] | 1620
CC(C)(C#N)Oc1ccc(Nc2nc(Nc3ccc(CC#N)cc3)ncc2F)cc1 [Compound I-83, N4-[4-(1-Cyano-1-methylethoxy)phenyl]-N2-(4-cyanomethylphenyl)-5-fluoro-2,4-pyrimidinediamine] | 424
Cc1noc(COc2ccc(Nc3nc(Nc4cccc(C#N)c4)ncc3F)c(C)c2)n1 [Compound I-116, N2-(3-Cyanophenyl)-5-fluoro-N4-[2-methyl-4-((3-methyl-1,2,4-oxadiazol-5-yl)methoxy)phenyl]-2,4-pyrimidinediamine] | 1440
N#Cc1cccc(Nc2ncc(F)c(Nc3cccc(OCC(N)=O)c3)n2)c1 [Compound I-35, N4-(3-Aminocarbonylmethoxyphenyl)-N2-(3-cyanophenyl)-5-fluoro-2,4-pyrimidinediamine] | 326
Cc1cnc(Nc2cnc3c(c2)OC(C)(C)C(=O)N3)nc1Nc1cnc2c(c1)OC(C)(C)C(=O)N2 [VII-1, N4,N2-Bis(2,2-Dimethyl-3-oxo[4H]-5-pyrido[1,4]oxazin-7-yl)-5-methyl-2,4-pyrimidinediamine] | 2630
CNC(=O)c1cc(Nc2ncc(F)c(Nc3ccc(OCC(N)=O)cc3)n2)ccc1N1CCN(C)CC1 [Compound I-39, N4-(4-Aminocarbonylmethoxyphenyl)-5-fluoro-N2-[3-methylaminocarbonyl-4-(4-methylpiperazin-1-yl)phenyl]-2,4-pyrimidinediamine] | 431
N#CCc1ccc(Nc2nc(Nc3ccc(C#N)cc3)ncc2F)cc1 [Compound I-69, N4-(4-Cyanomethylphenyl)-N2-(4-cyanophenyl)-5-fluoro-2,4-pyrimidinediamine] | 7190
Cc1cnc(Nc2cccc(C(N)=O)c2)nc1Nc1ccc2c(c1)CCC(=O)N2C [II-28, N2-(3-Aminocarbonylphenyl)-5-methyl-N4-(1-methyl-2-oxo-1,2,3,4-tetrahydroquinolin-6-yl)-2,4-pyrimidinediamine] | 899

The remaining lines, values ahead:

IC50 [nM] | Compound
245 | N#Cc1ccc(Nc2ncc(F)c(Nc3ccc(OCC(N)=O)cc3)n2)cc1 [Compound I-24, N4-(4-Aminocarbonylmethoxyphenyl)-N2-(4-cyanophenyl)-5-fluoro-2,4-pyrimidinediamine]
155 | Cc1cc(Nc2nc(Nc3ccc(CC#N)cc3)ncc2F)cc(C)c1OC(C)C#N (centres unmarked) [Compound I-97, N4-[4-(1-Cyanoethoxy)-3,5-dimethylphenyl]-N2-(4-cyanomethylphenyl)-5-fluoro-2,4-pyrimidinediamine]
118 | C#CCOc1ccc(Nc2nc(Nc3ccc(C(N)=O)cc3)ncc2F)cc1 [Compound I-8, N2-(4-Aminocarbonylphenyl)-5-fluoro-N4-[4-(2-propynyloxy)phenyl]-2,4-pyrimidinediamine]
247 | Cc1nc(COc2ccc(Nc3nc(Nc4ccc(CC#N)cc4)ncc3F)cc2)no1 [Compound I-77, N2-(4-Cyanomethylphenyl)-5-fluoro-N4-[4-((5-methyl-1,2,4-oxadiazol-3-yl)methoxy)phenyl]-2,4-pyrimidinediamine]
14 | CN1CCN(c2ccc(Nc3ncc(F)c(Nc4ccc(OCC#N)cc4)n3)cc2C(N)=O)CC1 [Compound I-42, N2-[3-Aminocarbonyl-4-(4-methylpiperazin-1-yl)phenyl]-N4-(4-cyanomethoxyphenyl)-5-fluoro-2,4-pyrimidinediamine]
29.8 | Cc1noc(COc2ccc(Nc3nc(Nc4ccc(CC#N)cc4)ncc3F)cc2)n1 [Compound I-110, N2-(4-Cyanomethylphenyl)-5-fluoro-N4-[4-((3-methyl-1,2,4-oxadiazol-5-yl)methoxy)phenyl]-2,4-pyrimidinediamine]
178 | NC(=O)c1ccc(Nc2ncc(F)c(Nc3cccc(-c4ncco4)c3)n2)cc1Cl [Compound I-14, N2-(4-Aminocarbonyl-3-chlorophenyl)-5-fluoro-N4-[3-(oxazol-2-yl)phenyl]-2,4-pyrimidinediamine]
117 | CC(C#N)Oc1ccc(Nc2nc(Nc3ccc(CC#N)cc3)ncc2F)cc1 (centres unmarked) [Compound I-78, N4-[4-(1-Cyanoethoxy)phenyl]-N2-(4-cyanomethylphenyl)-5-fluoro-2,4-pyrimidinediamine]
52.9 | CC(C#N)Oc1ccc(Nc2nc(Nc3ccc(C(N)=O)cc3)ncc2F)cc1 (centres unmarked) [Compound I-81, N2-(4-Aminocarbonylphenyl)-N4-[4-(1-cyanoethoxy)phenyl]-5-fluoro-2,4-pyrimidinediamine]
278 | N#CCc1ccc(Nc2ncc(F)c(Nc3ccc(OCC(N)=O)cc3)n2)cc1 [Compound I-76, N4-(4-Aminocarbonylmethoxyphenyl)-N2-(4-cyanomethylphenyl)-5-fluoro-2,4-pyrimidinediamine]
3.56 | CNC(=O)c1cc(Nc2ncc(F)c(Nc3ccc(OCC#N)cc3)n2)ccc1N1CCN(C)CC1 [Compound I-43, N4-(4-Cyanomethoxyphenyl)-5-fluoro-N2-[3-methylaminocarbonyl-4-(4-methylpiperazin-1-yl)phenyl]-2,4-pyrimidinediamine]
195 | N#CCc1ccc(Nc2ncc(F)c(Nc3ccc(CC#N)cc3)n2)cc1 [Compound I-71, N2,N4-Bis(4-cyanomethylphenyl)-5-fluoro-2,4-pyrimidinediamine]
91.4 | Cc1nc(COc2ccc(Nc3nc(Nc4ccc(C(N)=O)cc4)ncc3F)cc2)no1 [Compound I-56, N2-(4-Aminocarbonylphenyl)-5-fluoro-N4-[4-((5-methyl-1,2,4-oxadiazol-3-yl)methoxy)phenyl]-2,4-pyrimidinediamine]

Same assay, conditions: human Ramos B cells, compound 1 hour, IL-4 50 units/mL for 20-24 hours, anti-CD23-PE FACS; read-out: Example 2 (IC50)

IC50 [nM] | Compound
87.3 | CNC(=O)COc1cc(Nc2ncc(C)c(Nc3ccc4c(n3)NC(=O)C(C)(C)O4)n2)cc(OC)c1OC [II-35, N2-[3,4-Dimethoxy-5-(N-methylaminocarbonylmethoxy)phenyl]-N4-(2,2-dimethyl-3-oxo-4H-5-pyrido[1,4]oxazin-6-yl)-5-methyl-2,4-pyrimidinediamine]
1010 | N2-[2,3-Dihydro-1-(2-(N-morpholinyl)ethylaminocarbonyl)-1H-indol-6-yl]-N4-[4-(2-propynyloxy)phenyl]-2,4-pyrimidinediamine [VI-1]
177 | Cc1cnc(Nc2cccc(C(N)=O)c2)nc1Nc1ccc2c(c1)NC(=O)CO2 [II-38, N2-(3-Aminocarbonylphenyl)-N4-(3,4-dihydro-2H-3-oxo-4H-benz[1,4]oxazin-6-yl)-5-methyl-2,4-pyrimidinediamine]
421 | Cc1nc(COc2ccc(Nc3nc(Nc4ccc(C(=O)N5CCN(C)CC5)cc4)ncc3F)cc2)no1 [Compound I-60, 5-Fluoro-N4-[4-((5-methyl-1,2,4-oxadiazol-3-yl)methoxy)phenyl]-N2-[4-((4-methylpiperazin-1-yl)carbonyl)phenyl]-2,4-pyrimidinediamine]
1420 | CN1CCN(C(=O)c2ccc(Nc3ncc(F)c(Nc4cccc(OCC#N)c4)n3)cc2)CC1 [Compound I-53, N4-(3-Cyanomethoxyphenyl)-5-fluoro-N2-[4-((4-methylpiperazin-1-yl)carbonyl)phenyl]-2,4-pyrimidinediamine]

Compound | IC50 [nM]
CN1CCN(C(=O)c2cccc(Nc3ncc(F)c(Nc4ccc(OCC#N)cc4)n3)c2)CC1 [Compound I-40] | 567
CNC(=O)COc1cccc(Nc2ncc(F)c(Nc3cc(OC)c(OC)c(OCC#N)c3)n2)c1 [Compound I-109, N4-(3-Cyanomethoxy-4,5-dimethoxyphenyl)-5-fluoro-N2-[3-(N-methylaminocarbonylmethyleneoxy)phenyl]-2,4-pyrimidinediamine] | 660
